Reference: PMC11151065, “Boosted Enzyme Activity via Encapsulation within Metal–Organic Frameworks with Pores Matching Enzyme Size and Shape” (Advanced Science, 2024)

Molecular target: T1, cytochrome c (Cyt c) (Bos taurus, UniProt P62894)
T1 construct: gene CYCS; native holoprotein from cow heart (Sigma-Aldrich), free in solution
Assay: absorbance of ABTS radical cation at […] nm
Type: biochemical
Details: free enzyme; peroxidase activity with H2O2 co-substrate; room temperature

T1 sequence (P62894 2-105): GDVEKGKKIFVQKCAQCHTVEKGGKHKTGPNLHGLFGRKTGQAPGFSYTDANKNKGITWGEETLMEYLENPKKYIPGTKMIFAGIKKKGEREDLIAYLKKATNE

CCn1c(=NN=c2sc3cc(S(=O)(=O)O)ccc3n2CC)sc2cc(S(=O)(=O)O)ccc21 [ABTS, 2,2′‐azino‐bis (3‐ethylbenzothiazoline‐6‐sulfonic acid)]
absorbance of ABTS radical cation at 415 nm: peroxidase catalytic properties of Cyt c were utilized to oxidize ABTS to ABTS▪^+
